The nature of assay [1]: Molar potency (1/IC50) in the guinea pig ileum divided by its potency in the mouse vas deferens. The assay is classed as functional.
Assay [2] addresses Opioid receptors; mu/kappa/delta (Homo sapiens) (UniProt P41145+P41143+P35372). Put plainly: In vitro relative potency to morphine (IC50, 6.8E-8M) in guinea pig ileum was determined; inactive (potentiates contraction at >/=5.4E-8M). The assay is classed as functional, tissue-based. The conditions noted are these: Cavia porcellus, target entry is the homologue from another species.

For assay [3], the target named is T1, Opioid receptor (Mus musculus) (UniProt P42866+P32300+P33534). The experiment in a line: In vitro relative potency to morphine (IC50, 4.4E-8M) in mouse vas deferens was determined; inactive (potentiates contraction at >/=1.6E-6M). The assay is classed as functional, tissue-based.
Assay [4] has as its target T1, Opioid receptor (Mus musculus). Put plainly: […] relative molar potency represents the morphine ED50 ([…])/compound ED50 using the hotplate procedure in mice; inactive at 140 umol/kg. The class given is functional.

The source made the active and inactive calls. The rule behind the calls is not given here.

T1 sequence (P32300 whole entry, looked up): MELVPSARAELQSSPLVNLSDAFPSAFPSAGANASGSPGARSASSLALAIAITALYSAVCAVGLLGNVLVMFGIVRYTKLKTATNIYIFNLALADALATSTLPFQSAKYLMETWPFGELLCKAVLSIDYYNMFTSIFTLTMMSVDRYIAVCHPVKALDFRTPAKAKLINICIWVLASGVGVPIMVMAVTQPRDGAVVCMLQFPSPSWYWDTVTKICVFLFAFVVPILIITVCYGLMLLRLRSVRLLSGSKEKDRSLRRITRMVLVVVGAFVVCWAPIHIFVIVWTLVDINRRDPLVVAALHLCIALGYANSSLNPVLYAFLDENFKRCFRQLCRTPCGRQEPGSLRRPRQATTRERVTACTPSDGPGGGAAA
T1 sequence (P33534 whole entry, looked up): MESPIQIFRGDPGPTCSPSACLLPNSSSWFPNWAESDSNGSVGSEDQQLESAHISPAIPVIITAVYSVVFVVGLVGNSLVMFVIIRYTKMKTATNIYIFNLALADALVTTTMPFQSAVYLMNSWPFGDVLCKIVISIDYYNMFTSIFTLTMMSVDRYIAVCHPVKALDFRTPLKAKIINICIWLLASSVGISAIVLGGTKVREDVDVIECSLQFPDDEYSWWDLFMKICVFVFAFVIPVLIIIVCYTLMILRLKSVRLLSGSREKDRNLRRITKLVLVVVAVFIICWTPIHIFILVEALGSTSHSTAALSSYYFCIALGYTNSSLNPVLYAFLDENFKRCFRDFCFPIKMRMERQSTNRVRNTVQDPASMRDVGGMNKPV
T1 sequence (P42866 whole entry, looked up): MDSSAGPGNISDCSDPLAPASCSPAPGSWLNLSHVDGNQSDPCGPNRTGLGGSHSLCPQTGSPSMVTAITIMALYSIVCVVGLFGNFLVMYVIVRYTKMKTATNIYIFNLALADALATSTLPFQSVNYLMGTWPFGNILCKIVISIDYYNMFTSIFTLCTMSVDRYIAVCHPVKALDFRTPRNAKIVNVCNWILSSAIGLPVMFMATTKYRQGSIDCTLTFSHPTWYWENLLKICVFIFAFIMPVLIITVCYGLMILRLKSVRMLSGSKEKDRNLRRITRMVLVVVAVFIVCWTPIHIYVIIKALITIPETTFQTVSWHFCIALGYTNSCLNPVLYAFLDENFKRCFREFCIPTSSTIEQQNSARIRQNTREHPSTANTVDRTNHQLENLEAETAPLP
Sequence of Opioid receptors; mu/kappa/delta (Homo sapiens) (P35372 whole entry, looked up): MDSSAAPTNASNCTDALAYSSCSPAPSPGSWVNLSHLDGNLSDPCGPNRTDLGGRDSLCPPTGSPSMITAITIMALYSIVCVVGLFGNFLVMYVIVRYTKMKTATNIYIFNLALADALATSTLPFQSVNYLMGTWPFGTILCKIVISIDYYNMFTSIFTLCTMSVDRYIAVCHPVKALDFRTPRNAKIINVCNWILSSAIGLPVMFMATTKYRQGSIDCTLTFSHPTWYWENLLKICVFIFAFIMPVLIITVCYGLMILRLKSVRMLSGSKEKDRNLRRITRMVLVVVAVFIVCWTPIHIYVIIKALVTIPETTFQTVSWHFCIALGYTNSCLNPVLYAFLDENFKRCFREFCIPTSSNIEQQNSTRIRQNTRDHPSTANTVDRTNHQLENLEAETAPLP
Sequence of Opioid receptors; mu/kappa/delta (Homo sapiens) (P41143 whole entry, looked up): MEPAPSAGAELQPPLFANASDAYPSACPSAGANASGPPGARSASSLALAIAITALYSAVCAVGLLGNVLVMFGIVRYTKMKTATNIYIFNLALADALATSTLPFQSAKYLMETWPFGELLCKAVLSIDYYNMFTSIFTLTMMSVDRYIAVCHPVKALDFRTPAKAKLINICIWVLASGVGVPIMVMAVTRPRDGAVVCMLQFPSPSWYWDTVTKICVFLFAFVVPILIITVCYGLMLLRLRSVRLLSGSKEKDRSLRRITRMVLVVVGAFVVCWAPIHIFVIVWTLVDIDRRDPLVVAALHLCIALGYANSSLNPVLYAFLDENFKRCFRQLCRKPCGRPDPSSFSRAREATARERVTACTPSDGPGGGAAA
Sequence of Opioid receptors; mu/kappa/delta (Homo sapiens) (P41145 whole entry, looked up): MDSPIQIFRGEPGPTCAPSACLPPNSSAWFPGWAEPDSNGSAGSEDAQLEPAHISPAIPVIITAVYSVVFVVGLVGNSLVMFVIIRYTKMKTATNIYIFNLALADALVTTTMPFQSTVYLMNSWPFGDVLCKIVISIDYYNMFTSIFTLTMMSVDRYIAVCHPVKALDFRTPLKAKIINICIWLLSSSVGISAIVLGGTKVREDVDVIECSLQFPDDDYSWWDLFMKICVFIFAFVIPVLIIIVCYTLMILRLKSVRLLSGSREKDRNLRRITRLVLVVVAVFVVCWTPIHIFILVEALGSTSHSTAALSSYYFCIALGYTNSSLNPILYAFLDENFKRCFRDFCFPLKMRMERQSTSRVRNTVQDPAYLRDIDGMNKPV

`CCC(=O)C(c1ccccc1)(c1ccccc1)[C@H](C)[C@H](C)N(C)C` (single isomer, unassigned) returned a Molar potency in assay [1] of 1.7.
Still for that read-out and setting: then `CCC(=O)C(c1ccccc1)(c1ccccc1)C(C)CN(C)C` (single isomer, unassigned), with 2.3; and `CCC(=O)C(c1ccccc1)(c1ccccc1)[C@@H](C)[C@@H](C)N(C)C` (single isomer, unassigned), with 6.9.
For `CCC(=O)C(c1ccccc1)(c1ccccc1)[C@@H](C)[C@H](C)N(C)C` (racemic), the Relative molar potency entry in assay [2], in assay [3] and in assay [4] was “inactive” throughout.
Turning to `CN1CC[C@]23c4c5ccc(O)c4O[C@H]2[C@@H](O)C=C[C@H]3[C@H]1C5` [MORPHINE], the Molar potency in assay [1] worked out at 6.5.

The record behind these values is ChEMBL document CHEMBL1122074 (1982).
